Drawing on the NIST ThermoML archive (doi:10.1016/j.jct.2004.11.017), this text covers mass density for two compounds.

± gives the expanded uncertainty stated by the source.

The conditions of data set [1]: 101 kPa, Liquid.
The nature of data set [2]: xn = mol fraction of the nth substance listed. To be noted: 101 kPa, Liquid, x2 = 0.

Consider `CC[S+]([O-])CC` [diethyl sulfoxide], for which the mass density in data set [1] (298.15 K) is reported as 1010.2 ± 1.4 kg/m3; in data set [1] (303.15 K) it was 1005.8 ± 1.4 kg/m3; in data set [1] (308.15 K) it was 1001.4 ± 1.3 kg/m3; in data set [1] (313.15 K) it was 997 ± 1.3 kg/m3; in data set [1] (318.15 K), 992.6 ± 1.4 kg/m3; in data set [1] (323.15 K), 988.2 ± 1.5 kg/m3. The mass density is recorded as 983.9 ± 1.5 kg/m3 in data set [1] (328.15 K), 979.5 ± 1.6 kg/m3 in data set [1] (333.15 K), 975.1 ± 1.7 kg/m3 in data set [1] (338.15 K) and 970.6 ± 1.8 kg/m3 in data set [1] (343.15 K).
As for `O` [water] + CC[S+]([O-])CC, the mass density in data set [2] (298.15 K) is reported as 996.6 ± 1.3 kg/m3; in data set [2] (303.15 K), 995.2 ± 1.4 kg/m3; in data set [2] (308.15 K) it was 993.6 ± 1.4 kg/m3; in data set [2] (313.15 K), 991.9 ± 1.4 kg/m3; in data set [2] (318.15 K), 989.7 ± 1.4 kg/m3; in data set [2] (323.15 K), 987.6 ± 1.5 kg/m3. Further, the mass density was 985.3 ± 1.5 kg/m3 in data set [2] (328.15 K), 982.8 ± 1.6 kg/m3 in data set [2] (333.15 K), 979.3 ± 1.6 kg/m3 in data set [2] (338.15 K) and 977.5 ± 1.6 kg/m3 in data set [2] (343.15 K).

In general, mass density refers to mass per unit of volume.
